The subject of data set [1] is HCV sub-genomic replicon of genotype 1a in replicon cell line W11.8. The experiment in a line: microbe, parasite or virus in culture. The data set is classed as cell-based, HCV genotype 1a. The settings on record: Hepatitis C virus. The text has this:
This procedure below describes the HCV replicon assay using a Huh7 hepatoma cell line harboring a highly cell culture-adapted replicon (genotype 1b) (hereafter named cell line ET). The ET cells contained the highly cell culture-adapted replicon I389luc-ubi-neo/NS3-3′/5.1 construct that carried, in addition to the neomycin gene, an integrated copy to the firefly luciferase gene (Krieger, N; Lohmann, V; Bartenschlager, R. Enhancement of hepatitis C virus RNA replication by cell culture-adaptive mutations. J. Virol. 2001, 75, 4614-4624). A replicon cell line W11.8, containing the 1a genotype of HCV was also used. These two cell lines (genotype 1b and 1a) allowed measurement of RNA replication and translation by measuring luciferase activity (against genotype 1b) or by measuring the NS5A level using the ELISA assay (against genotype 1a). […] ET cell lines were maintained in cultures at a sub-confluent level (<85%). The culture media used for cell passaging consisted of DMEM (Gibco BRL Laboratories, Mississauga, ON, Canada) supplemented with 10% fetal bovine serum with 1% penicilin/streptomycin, 1% glutamine, 1% sodium pyruvate, 1% non-essential amino acids, and 180 µg/ml of G418 final concentration.
Replicon cell lines W11.8 containing a sub-genomic replicon of genotype 1a was used for the HCV Replicon Cell-Based detection using the ELISA. The RNA replication in presence of different drug concentrations was indirectly measured in these cell lines by the level of NS5A protein content upon drug treatment for four days. The NS5A is a non-structural protein of HCV and is used as marker of HCV replication in this assay.
For the treatment of the cells with the testing drug, Culture medium was removed from the 175 cm^2 T-flask by aspiration. Cell monolayer was rinsed with 10-20 mL of PBS 1× at room temperature. PBS was removed by aspiration. Cells were trypsinized using 3 mL of Trypsin (0.25%)/EDTA (0.1%) solution. Flasks were incubated at 37° C. (incubator) for 7 minutes. Complete medium (9 mL) without G418 is then added. Cell clumps were disrupted by pipetting up and down several times.
The cell suspension was then transferred to a 50 mL Falcon polypropylene tube. Cells were then counted several times using the haemocytometer. Cells were diluted at 50,000 cells/mL with complete DMEM without G418, then transferred into a sterile reservoir. Using a multichannel pipet, approximately 5,000 viable cells (100 μL) were plated per well in a white opaque 96-well microtiter plate. After an incubation period of 2-4 hours at 37° C. in a 5% CO2 incubator, compounds were added at various concentrations.
Drugs were resuspended in DMSO at a stock concentration of 100 mM or 10 mM. […] Then, drugs were diluted at twice the final concentration in the same medium (without G418) described earlier, in sterile 96-deep well plate and according to a particular template (see Appendix). One volume (100 μL) of each drug dilution was then added to each well that contains cells.
Sixteen wells were used as control (0% inhibition) without drug. Eight wells were used as background control (100% inhibition) containing 2 μM (final concentration) of the reference compound. […] Values from 100% inhibited wells were averaged and used as the background value. Cells are further incubated for 4 days at 37° C. in a 5% CO2 incubator.
For the measurement of NS5A protein content, following the incubation time of four days, the media was throwed into an appropriate waste container by inverting the plate. Any residual liquid was removed by tapping gently on absorbent paper several times. The plates were then washed once with 150 μL of PBS per well, and then incubated for 5 minutes at room temperature on a shaker (500 rpm).

Data set [2] in a line: [3H]Thymidine incorporation assay (cell toxicity). The settings on record: human. In general terms: Uptake of a labelled nucleoside into DNA is a usual measure of proliferation.
The test system of data set [3] is HCV replicon (genotype 1b) in Huh7 cell line ET. Nature of the data set: microbe, parasite or virus in culture. The data set is classed as cell-based, HCV genotype 1b. The settings on record: Hepatitis C virus.
Where [4] appears, read: W11.8, read-out: HCV-Replicon-ELISA-1a IC50.
Setting [5] is: Huh-7, read-out: HCV-Replicon-(Luci-ET) 1b_IC50.

A word on the CC50: it is the concentration at which the toxic effect on the cells reaches its halfway point. Lower therefore signals harm at low concentration.

Like-named read-outs stand apart in the source and are kept apart here.

For `COCC(C(=O)N(C)C)N(C(=O)C1CCC(C)CC1)c1cc(C#CC(C)(C)C)sc1C(=O)O` (single isomer, unassigned) [Compound 21], the IC50 in data set [1] (setting [4]) and in data set [3] (setting [5]) was under 100 nM each time. The compound also came in with a CC50 at 72 h in data set [2] of over 100000 nM.
For the compound `CC1CCC(C(=O)N(c2cc(C#CC(C)(C)C)sc2C(=O)O)[C@H]2CCN(C)C2=O)CC1` (single isomer, unassigned) [Compound 91], the IC50 in data set [1] (setting [4]) and in data set [3] (setting [5]) was under 100 nM throughout. Further, in data set [2], the cytotoxic concentration (CC50) at 72 h is over 100000 nM.
Consider `C[C@@H](C(=O)N(C)C)N(c1cc(C#CC(C)(C)C)sc1C(=O)O)C(=O)[C@H]1CC[C@H](C)CC1` [Compound 3, 5-(3,3-Dimethyl-but-1-ynyl)-3-[((S)-1-dimethylcarbamoyl-ethyl)-(trans-4-methyl-cyclohexanecarbonyl)-amino]-thiophene-2-carboxylic acid], for which the IC50 in data set [1] (setting [4]) and in data set [3] (setting [5]) was under 100 nM throughout. The compound further displayed a CC50 at 72 h in data set [2] of over 100000 nM.
On to `CN(C)C(=O)CN(C(=O)c1ccc(Cl)cc1Cl)c1cc(C#CC(C)(C)C)sc1C(=O)O` [Compound 4, 3-[(2,4-Dichloro-benzoyl)-dimethylcarbamoylmethyl-amino]-5-(3,3-dimethyl-but-1-ynyl)-thiophene-2-carboxylic acid], for which the IC50 in data set [1] (setting [4]) was 100 to 1000 nM; in data set [3] (setting [5]), under 100 nM. The CC50 at 72 h in data set [2] lay within 10000 to 100000 nM.
As to `CN(C)C(=O)CN(c1cc(C#CC(C)(C)C)sc1C(=O)O)C(=O)[C@H]1CC[C@H](C)CC1` [Compound 5, 5-(3,3-Dimethyl-but-1-ynyl)-3-[dimethylcarbamoylmethyl-(trans-4-methyl-cyclohexanecarbonyl)-amino]-thiophene-2-carboxylic acid], the IC50 in data set [1] (setting [4]) and in data set [3] (setting [5]) was under 100 nM in each case. In addition, the 50% cytotoxic concentration (CC50) at 72 h in data set [2] was over 100000 nM.
For the compound `CC(C)(C)C#Cc1cc(N(CC(=O)N2CCCC2)C(=O)[C@H]2CC[C@H](C)CC2)c(C(=O)O)s1` [Compound 6, 5-(3,3-Dimethyl-but-1-ynyl)-3-[(trans-4-methyl-cyclohexanecarbonyl)-(2-oxo-2-pyrrolidin-1-yl-ethyl)-amino]-thiophene-2-carboxylic acid], the IC50 in data set [1] (setting [4]) and in data set [3] (setting [5]) was under 100 nM each time. The same compound gave a CC50 at 72 h in data set [2] of over 100000 nM.
For `CC[C@@H](C(=O)N1CCOCC1)N(c1cc(C#CC(C)(C)C)sc1C(=O)O)C(=O)[C@H]1CC[C@H](C)CC1` [Compound 12], the IC50 in data set [1] (setting [4]) and in data set [3] (setting [5]) was under 100 nM in each case. In data set [2], this compound came in with a cytotoxic concentration (CC50) at 72 h of 10000 to 100000 nM.
For `CC[C@@H](C(=O)N(C)C)N(c1cc(C#CC(C)(C)C)sc1C(=O)O)C(=O)[C@H]1CC[C@H](C)CC1` [Compound 13], the IC50 in data set [1] (setting [4]) and in data set [3] (setting [5]) was under 100 nM in each case. The compound further registered a CC50 at 72 h in data set [2] of over 100000 nM.
Take `CC(C)(C)C#Cc1cc(N(CC(=O)N2CCOCC2)C(=O)[C@H]2CC[C@H](C)CC2)c(C(=O)O)s1` [Compound 14]: the IC50 in data set [1] (setting [4]) and in data set [3] (setting [5]) was under 100 nM throughout. In data set [2], this compound showed a CC50 at 72 h of over 100000 nM.
As to `COCC(C(=O)N(C)C)N(C(=O)C1CCC(C)CC1)c1cc(C#CC(C)C)sc1C(=O)O` (centres unmarked) [Compound 16], the IC50 in data set [1] (setting [4]) and in data set [3] (setting [5]) was under 100 nM throughout. The CC50 at 72 h in data set [2] is over 100000 nM.
With `CCN(CC)C(=O)CN(c1cc(C#CC(C)(C)C)sc1C(=O)O)C(=O)[C@H]1CC[C@H](C)CC1` [Compound 17], the IC50 in data set [1] (setting [4]) and in data set [3] (setting [5]) was under 100 nM throughout. In data set [2], this compound returned a half-maximal cytotoxic concentration (CC50) at 72 h of over 100000 nM.
In the case of `COC[C@@H](C(=O)N1CCOCC1)N(C(=O)C1CCC(C)CC1)c1cc(C#CC(C)(C)C)sc1C(=O)O` (some centres unmarked) [Compound 23], the IC50 in data set [1] (setting [4]) and in data set [3] (setting [5]) was under 100 nM in each case. Moreover, in data set [2], the CC50 at 72 h was over 100000 nM.
As to `COC[C@@H](C(=O)N1CCCC1)N(C(=O)C1CCC(C)CC1)c1cc(C#CC(C)(C)C)sc1C(=O)O` (some centres unmarked) [Compound 35], the IC50 in data set [1] (setting [4]) and in data set [3] (setting [5]) was under 100 nM in each case. The compound also had a CC50 at 72 h in data set [2] of 10000 to 100000 nM.
On to `CC[C@@H](C(=O)N1CCOC(C)C1)N(C(=O)C1CCC(C)CC1)c1cc(C#CC(C)(C)C)sc1C(=O)O` (some centres unmarked) [Compound 56], for which the IC50 in data set [1] (setting [4]) and in data set [3] (setting [5]) was under 100 nM throughout. In addition, in data set [2], the half-maximal cytotoxic concentration (CC50) at 72 h is 10000 to 100000 nM.
Consider `COCC[C@@H](C(=O)N1CCOCC1)N(C(=O)C1CCC(C)CC1)c1cc(C#CC(C)(C)C)sc1C(=O)O` (some centres unmarked) [Compound 61], for which the IC50 in data set [1] (setting [4]) and in data set [3] (setting [5]) was under 100 nM each time. Besides, the CC50 at 72 h in data set [2] is over 100000 nM.
Consider `CCC[C@@H](C(=O)N1CCOCC1)N(C(=O)C1CCC(C)CC1)c1cc(C#CC(C)(C)C)sc1C(=O)O` (some centres unmarked) [Compound 64], for which the IC50 in data set [1] (setting [4]) and in data set [3] (setting [5]) was under 100 nM each time. The compound also gave a cytotoxic concentration (CC50) at 72 h in data set [2] of 10000 to 100000 nM.
Turning to `CC[C@@H](C(=O)N1CC2CC1CO2)N(c1cc(C#CC(C)(C)C)sc1C(=O)O)C(=O)[C@H]1CC[C@H](C)CC1` (some centres unmarked) [Compound 78], the IC50 in data set [1] (setting [4]) and in data set [3] (setting [5]) was under 100 nM throughout. Besides, the CC50 at 72 h in data set [2] is over 100000 nM.
As to `CC[C@@H](C(=O)N1CC(OC)C1)N(c1cc(C#CC(C)(C)C)sc1C(=O)O)C(=O)[C@H]1CC[C@H](C)CC1` [Compound 79], the IC50 in data set [1] (setting [4]) and in data set [3] (setting [5]) was under 100 nM in each case. Besides, in data set [2], the CC50 at 72 h was over 100000 nM.
`CC1CCC(C(=O)N(c2cc(C#CC(C)(C)C)sc2C(=O)O)C2CCN(C)C2=O)CC1` (centres unmarked) [Compound 83]: the IC50 in data set [1] (setting [4]) and in data set [3] (setting [5]) was under 100 nM throughout. In addition, in data set [2], the CC50 at 72 h is over 100000 nM.
As to `CC[C@@H](C(=O)N1C[C@@H]2C[C@H]1CO2)N(c1cc(C#CC(C)(C)C)sc1C(=O)O)C(=O)[C@H]1CC[C@H](C)CC1` [Compound 94], the IC50 in data set [1] (setting [4]) and in data set [3] (setting [5]) was under 100 nM throughout. The CC50 at 72 h in data set [2] was over 100000 nM.
Take `CC1CCC(C(=O)N(c2cc(C#CC(C)(C)C)sc2C(=O)O)[C@H]2CCCCN(C)C2=O)CC1` (stereo partly drawn) [Compound 95, 5-(3,3-dimethylbut-1-yn-1-yl)-3-(4-methyl-N—((S)-1-methyl-2-oxoazepan-3-yl)cyclohexanecarboxamido)thiophene-2-carboxylic acid]: the IC50 in data set [1] (setting [4]) and in data set [3] (setting [5]) was under 100 nM in each case. In data set [2], the half-maximal cytotoxic concentration (CC50) at 72 h was in the range of 10000 to 100000 nM.
Regarding `CC1CCC(C(=O)N(CCC(=O)N(C)C)c2cc(C#CC(C)(C)C)sc2C(=O)O)CC1` (centres unmarked) [Compound 98], the figures for the IC50 in data set [1] (setting [4]) and in data set [3] (setting [5]) were 100 to 1000 nM and under 100 nM, respectively. For the same compound, the CC50 at 72 h in data set [2] was over 100000 nM.
On to `C[C@@H](CN(c1cc(C#CC(C)(C)C)sc1C(=O)O)C(=O)[C@H]1CC[C@H](C)CC1)C(=O)N1CCOCC1` [Compound 108, 5-(3,3-Dimethylbut-1-ynyl)-3-[(trans-4-methylcyclohexanecarbonyl)-[(2S)-2-methyl-3-morpholino-3-oxo-propyl]amino]thiophene-2-carboxylic acid], for which the IC50 in data set [1] (setting [4]) and in data set [3] (setting [5]) was under 100 nM in each case. In data set [2], this compound came in with a half-maximal cytotoxic concentration (CC50) at 72 h of over 100000 nM.
As to `CC(C)(C)C#Cc1cc(N(C(=O)[C@H]2CC[C@H](C)CC2)[C@H]2CCN([C@H]3CCOC3)C2=O)c(C(=O)O)s1` [Compound 156, 5-(3,3-Dimethylbut-1-ynyl)-3-[(trans-4-methylcyclohexanecaronyl)-[(3S)-2-oxo-1-[(3S)-tetrahydrofuran-3-yl]pyrrolidin-3-yl]amino]thiophene-2-carboxylic acid], the IC50 was 4 nM in data set [1] (W11.8, 96 h, read-out: HCV-Replicon-ELISA-1a IC50) and under 100 nM in data set [3] (Huh-7, 96 h, read-out: HCV-Replicon (Luci-ET)-1b_IC50).
